Data taken from patent publication US20020183313A1, “1,4-benzodiazepinones and their uses as CCK antagonists” (Fujisawa Pharmaceutical Co., Ltd., priority 1996, published 2002).

Compound	melting point
CC1=NC(NC(=O)Nc2cccc(C)c2)C(=O)N(CC(=O)NC(C)(C)C)c2c(C)cccc21 (racemic) [48-3(11), N-[(3RS)-2,3-Dihydro-5,9-dimethyl-1-(N-tert-butylamino-carbonylmethyl)-2-oxo-1H-1,4-benzodiazepin-3-yl]-N′-(3-methylphenyl)urea]	243.4 to 244.4 °C
CC1=NC(NC(=O)Nc2cccc(C)c2)C(=O)N(CC(=O)N2CCN(CCO)CC2)c2c(C)cccc21 (racemic) [48-3(14), N-[(3RS)-2,3-Dihydro-1-[4-(2-hydroxyethyl)piperazin-1-yl]carbonylmethyl-5,9-dimethyl-2-oxo-1H-1,4-benzodiazepin-3-yl]-N′-(3-methylphenyl)urea]	221.7 to 224.2 °C
CC1=NC(NC(=O)Nc2cccc(C)c2)C(=O)N(CC(=O)N(CC(C)C)CC(C)C)c2c(C)cccc21 (racemic) [48-3(15), N-[(3 RS)-2,3-Dihydro-1-(N,N-diisobutylamino)carbonylmethyl-5,9-dimethyl-2-oxo-1H-1,4-benzodiazepin-3-yl]-N′-(3-methylphenyl)urea]	226.9 to 228.1 °C
CC1=NC(NC(=O)Nc2cccc(C)c2)C(=O)N(CC(=O)N(CCO)CCO)c2c(C)cccc21 (racemic) [48-3(16), N-[(3RS)-2,3-Dihydro-1-(N,N-bis-(2-hydroxyethyl)amino)-carbonylmethyl-5,9-dimethyl-2-oxo-1H-1,4-benzodiazepin-3-yl]-N′-(3-methylphenyl)urea]	160.5 to 161.1 °C
Cc1cccc(NC(=O)NC2N=C(CN(C)C)c3cccc(C)c3N(CC(=O)N3CCCCCCC3)C2=O)c1 (racemic) [71-3(1), N-[(3RS)-1-(azacyclooctan-1-yl)carbonylmethyl-2,3-dihydro-5-(N,N-dimethylamino)methyl-9-methyl-2-oxo-1H-1,4-benzodiazepin-3-yl]-N′-(3-methylphenyl)urea]	147.9 to 149.1 °C
Cc1cccc(NC(=O)NC2N=C(C=O)c3cccc(C)c3N(CC(=O)N3CCCCCCC3)C2=O)c1 (racemic) [71-3(2), N-[(3RS)-1-(azacyclooctan-1-yl)carbonylmethyl-2,3-dihydro-5-formyl-9-methyl-2-oxo-1H-1,4-benzodiazepin-3-yl]-N′-(3-methylphenyl)urea]	137.9 to 141 °C
CCOC(=O)C=CC1=NC(NC(=O)Nc2cccc(C)c2)C(=O)N(CC(=O)N2CCCCCCC2)c2c(C)cccc21 (racemic) [75(1)-1, N-[(3RS)-1-(azacyclooctan-1-yl)carbonylmethyl-2,3-dihydro-5-((EZ)-2-(ethoxycarbonyl)ethenyl)-9-methyl-2-oxo-1H-1,4-benzodiazepin-3-yl]-N′-(3-methylphenyl)urea]	175.2 to 177.7 °C
Cc1cccc(NC(=O)NC2N=C(C=CC(=O)O)c3cccc(C)c3N(CC(=O)N3CCCCCCC3)C2=O)c1 (racemic) [75(1)-2, N-[(3RS)-1-(azacyclooctan-1-yl)carbonylmethyl-2,3-dihydro-5-((EZ)-2-carboxylethenyl)-9-methyl-2-oxo-1H-1,4-benzodiazepin-3-yl]-N′-(3-methylphenyl)urea]	129.3 to 134.1 °C
CC(=O)c1sccc1CN1C(=O)C(NC(=O)Nc2cccc(C)c2)N=C(C(C)C)c2ccccc21 (racemic) [Example 2, N-[(3RS)-1-(2-acetylthiophen-3-yl)methyl-2,3-dihydro-5-isopropyl-2-oxo-1H-1,4-benzodiazepin-3-yl]-N′-(3-methylphenyl)urea]	219 to 221 °C (dec.)
CC(=O)c1sccc1CN1C(=O)C(NC(=O)Nc2cccc(C)c2)N=C(CC(C)C)c2ccccc21 (racemic) [Example 6(3), N-[(3RS)-2,3-dihydro-5-(2-methylpropyl)-1-(2-methylcarbonylthiophen-3-yl)methyl-2-oxo-1,4-benzodiazepin-3-yl]-N′-(3-methylphenyl)urea]	215 to 218 °C
CC(=O)OCCN1C(=O)C(NC(=O)Nc2cccc(-c3nnn[nH]3)c2)N=C(C2CCCCC2)c2cccc(C)c21 (racemic) [Example 21-1, N-[(3RS)-1-(2-Acetoxyethyl)-5-cyclohexyl-2,3-dihydro-9-methyl-2-oxo-1H-1,4-benzodiazepin-3-yl]-N′-[3-(tetrazol-5-yl)phenyl]urea]	165.2 to 168.4 °C
Cc1cccc2c1N(CCO)C(=O)C(NC(=O)Nc1cccc(-c3nnn[nH]3)c1)N=C2C1CCCCC1 (racemic) [Example 21-2, N-[(3RS)-5-Cyclohexyl-2,3-dihydro-1-(2-hydroxyethyl)-9-methyl-2-oxo-1H-1,4-benzodiazepin-3-yl]-N′-[3-(tetrazol-5-yl)phenyl]urea]	223.5 to 224.2 °C
CC1=NC(NC(=O)Nc2cccc(C)c2)C(=O)N(CC(=O)c2ccccc2C)c2c(C)cccc21 (racemic) [Example 37, N-[(3RS)-2,3-Dihydro-5,9-dimethyl-1-(2-methylphenacyl)-2-oxo-1H-1,4-benzodiazepin-3-yl]-N′-(3-methylphenyl)urea]	128.4 to 136.2 °C
CC1=NC(NC(=O)Nc2cccc(C)c2)C(=O)N(CC(=O)C(C)(C)C)c2c(C)cccc21 (racemic) [Example 41, N-[(3RS)-2,3-Dihydro-5,9-dimethyl-1-tert-butylcarbonylmethyl-2-oxo-1H-1,4-benzodiazepin-3-yl]-N′-(3-methylphenyl)urea]	179.6 to 181.2 °C
CCC(=O)CN1C(=O)C(NC(=O)Nc2cccc(C)c2)N=C(C)c2cccc(C)c21 (racemic) [Example 44, N-[(3RS)-2,3-Dihydro-1-ethylcarbonylmethyl-5,9-dimethyl-2-oxo-1H-1,4-benzodiazepin-3-yl]-N′-(3-methylphenyl)urea]	125.1 to 127.5 °C
CC(=O)CN1C(=O)C(NC(=O)Nc2cccc(C)c2)N=C(C)c2cccc(C)c21 (racemic) [Example 46, N-[(3RS)-2,3-Dihydro-5,9-dimethyl-1-methylcarbonylmethyl-2-oxo-1H-1,4-benzodiazepin-3-yl]-N′-(3-methylphenyl)urea]	126.1 to 127.7 °C
Cc1cccc2c1N(CC(=O)C1CC1)C(=O)C(NC(=O)Nc1cccc(-c3nnn[nH]3)c1)N=C2C1CCCCC1 (racemic) [Example 47, N-[(3RS)-5-Cyclohexyl-1-cyclopropylcarbonylmethyl-2,3-dihydro-9-methyl-2-oxo-1H-1,4-benzodiazepin-3-yl]-N′-[3-(tetrazol-5-yl)phenyl]urea]	227.1 to 233.2 °C
CCOC(=O)CN1C(=O)C(NC(=O)Nc2cccc(C)c2)N=C(C)c2cccc(C)c21 (racemic) [Example 48-1, N-[(3RS)-2,3-Dihydro-1-ethoxycarbonylmethyl-5,9-dimethyl-2-oxo-1H-1,4-benzodiazepin-3-yl]-N′-(3-methylphenyl)urea]	229.7 to 231 °C

Results, then the compound that gave them:

melting point	Compound
168.2 to 179.2 °C	Cc1cccc2c1N(Cc1c[nH]cn1)C(=O)C(NC(=O)Nc1cccc(-c3nnn[nH]3)c1)N=C2C1CCCCC1 (racemic) [Example 49, N-[(3RS)-5-Cyclohexyl-2,3-dihydro-1-(imidazol-4-yl)methyl-9-methyl-2-oxo-1H-1,4-benzodiazepin-3-yl]-N′-[3-(tetrazol-5-yl)phenyl]urea]
199 to 208 °C	CC(=O)c1ccccc1CN1C(=O)C(NC(=O)Nc2cccc(-c3nnn[nH]3)c2)N=C(C2CCCCC2)c2cccc(C)c21 (racemic) [Example 51, N-[(3RS)-1-(2-acetylbenzyl)-5-cyclohexyl-2,3-dihydro-9-methyl-2-oxo-1H-1,4-benzodiazepin-3-yl]-N′-[3-(tetrazol-5-yl)phenyl]urea]
159.3 to 169.6 °C	Cc1cccc(NC(=O)NC2N=C(C3CCCCC3)c3cccc(C)c3N(CC(=O)C3CCCCC3)C2=O)c1 (racemic) [Example 54, N-[(3RS)-5-Cyclohexyl-1-cyclohexylcarbonylmethyl-2,3-dihydro-9-methyl-2-oxo-1H-1,4-benzodiazepin-3-yl]-N′-(3-methylphenyl)urea]
171.3 to 174.6 °C	CC1=NC(NC(=O)Nc2cccc(C)c2)C(=O)N(CC(=O)C2CCCCCC2)c2c(C)cccc21 (racemic) [Example 63, N-[(3RS)-1-Cycloheptylcarbonylmethyl-2,3-dihydro-5,9-dimethyl-2-oxo-1H-1,4-benzodiazepin-3-yl]-N′-(3-methylphenyl)urea]
150.1 to 155.5 °C	CC1=NC(NC(=O)Nc2cccc(C)c2)C(=O)N(CC(=O)C2CCCC2)c2c(C)cccc21 (racemic) [Example 65, N-[(3RS)-1-Cyclopentylcarbonylmethyl-2,3-dihydro-5,9-dimethyl-2-oxo-1H-1,4-benzodiazepin-3-yl]-N′-(3-methylphenyl)urea]
189 to 189.5 °C	CCC1=NC(NC(=O)Nc2cccc(C)c2)C(=O)N(CC(=O)N2CCCCCCC2)c2c(C)cccc21 (racemic) [Example 66, N-[(3RS)-1-(Azacyclooctan-1-yl)carbonylmethyl-2,3-dihydro-5-ethyl-9-methyl-2-oxo-1H-1,4-benzodiazepin-3-yl]-N′-(3-methylphenyl)urea]
131.7 to 132.8 °C	Cc1cccc(NC(=O)NC2N=C(C(C)C)c3cccc(C)c3N(CC(=O)N3CCCCCCC3)C2=O)c1 (racemic) [Example 67, N-[(3RS)-1-(Azacyclooctan-1-yl)carbonylmethyl-2,3-dihydro-5-isopropyl-9-methyl-2-oxo-1H-1,4-benzodiazepin-3-yl]-N′-(3-methylphenyl)urea]
131.6 to 133.4 °C	Cc1cccc(NC(=O)NC2N=C(CC(C)C)c3cccc(C)c3N(CC(=O)N3CCCCCCC3)C2=O)c1 (racemic) [Example 69, N-[(3RS)-1-(Azacyclooctan-1-yl)carbonylmethyl-2,3-dihydro-5-isobutyl-9-methyl-2-oxo-1H-1,4-benzodiazepin-3-yl]-N′-(3-methylphenyl)urea]
153.6 to 155.3 °C	Cc1cccc(NC(=O)NC2N=C(C3CCCCC3)c3cccc(C)c3N(CC(=O)N3CCCCCCC3)C2=O)c1 (racemic) [Example 70, N-[(3RS)-1-(Azacyclooctan-1-yl)carbonylmethyl-5-cyclohexyl-2,3-dihydro-9-methyl-2-oxo-1H-1,4-benzodiazepin-3-yl]-N′-(3-methylphenyl)urea]
